# What was measured:
# [1] = tested on: barnyard glass; assay: Test Example 2: herbicidal efficacy on rice paddy weeds post-emergence; type: in vivo, Echinochloa crus-galli; settings: 21 days after treatment
# Excerpt: (§1) The standard of judgment for herbicidal efficacy (degree of growth inhibition) and phytotoxicity 4 . . . 90%-100% of herbicidal efficacy or phytotoxicity 3 . . . 70%-89% of herbicidal efficacy or phytotoxicity 2 . . . 40%-69% of herbicidal efficacy or phytotoxicity 1 . . . 1%-39% of herbicidal efficacy or phytotoxicity 0 . . . 0% of herbicidal efficacy or phytotoxicity
# (§2) A 75 cm^2 plastic pot was filled with soil (clay loam) and planted seeds of barnyard glass and bulrush which is a rice paddy weed. After covering the top with 75 cm^3 soil mixed with seeds of false pimpernel, the pot was filled with water so that the soil submerged under 5 cm depth of water and kept in a hot house. […] The pot was kept in a hot house for 21 days after the treatment and the herbicidal efficacy was investigated and evaluated according to the standard in Test Example 1 by comparing with the untreated control. “-” in the table represents test not done.
# [2] = tested on: bulrush; assay: Test Example 1: herbicidal efficacy on rice paddy weeds pre-emergence; type: in vivo, Scirpus juncoides; settings: 21 days
# Experimental: (§3) A 75 cm^2 plastic pot was filled with soil (clay loam) and planted seeds of bulrush which is a rice paddy weed. After covering the top with 75 cm^3 soil mixed with seeds of false pimpernel, the pot was filled with water so that the soil submerged under 5 cm depth of water. The predetermined effective dosage ([…]) of a formulation containing the compound of the present invention prepared according to Formulation Example 1-4 as an active ingredient was diluted in water and added to the pot water surface dropwise. The pot was kept in a hot house for 21 days and the herbicidal efficacy was investigated. The herbicidal efficacy was evaluated according to the following standard by comparing with untreated control. “-” in the table represents test not done.
# as §1
# [3] = tested on: false pimpernel; assay: as above; type: in vivo, Lindernia pyxidaria; settings: 21 days
# Experimental: as §3, §1
# [4] = tested on: paddy rice plant (cultivar: Nihonbare); assay: Test Example 3: phytotoxicity test for transplanted paddy rice plant; type: in vivo; settings: 21 days after treatment; for Phytotoxicity to paddy rice: transplanted rice
# Experimental: as §1
# A 75 cm^2 plastic pot was filled with soil (clay loam), and water was added so that the soil was submerged under 5 cm depth of water. Two paddy rice plant (cultivar: Nihonbare) at two leaves stage were transplanted at the depth of 1 cm and kept in a hot house. […] The pot was kept in a hot house for 21 days after the treatment and the phytotoxicity was investigated and evaluated according to the standard in Test Example 1 by comparing with the untreated control. “-” in the table represents test not done.
# [5] = tested on: bulrush; assay: Test Example 2: herbicidal efficacy on rice paddy weeds post-emergence; type: in vivo, Scirpus juncoides; settings: 21 days after treatment
# Excerpt: as §1, §2
# [6] = tested on: false pimpernel; assay: as above; type: in vivo, Lindernia pyxidaria; settings: post-emergence, one leaf stage, 21 days after treatment
# Excerpt: as §1, §2
# [7] = dosage 300 g/ha, post-emergence, one leaf stage
# [8] = dosage 1000 g/ha, post-emergence, one leaf stage
# [9] = dosage 1000 g/ha, treated 5 days after transplantation
# [10] = dosage 1000 g/ha active ingredient, post-emergence treatment at one leaf stage, vs untreated control
SMILES,Bulrush pre (herbicidal efficacy grade) ([2]; dosage 300 g/ha),False pimpernel pre (herbicidal efficacy grade) ([3]; dosage 300 g/ha),Phytotoxicity to paddy rice ([4]; dosage 300 g/ha),"Bulrush post (herbicidal efficacy grade) [5, 7]",False pimpernel post (herbicidal efficacy grade) ([6]; dosage 300 g/ha),"Burnyard grass post (herbicidal efficacy grade) [1, 8]",Bulrush pre (herbicidal efficacy grade) ([2]; dosage 1000 g/ha),False pimpernel pre (herbicidal efficacy grade) ([3]; dosage 1000 g/ha),"Phytotoxicity to paddy rice [4, 9]","Bulrush post (herbicidal efficacy grade) [5, 8]",False pimpernel post (herbicidal efficacy grade) ([6]; dosage 1000 g/ha),other results
CC(=O)OCC1CN(Cc2ccccc2NS(=O)(=O)C(F)(F)F)C(=O)O1 (stereo not drawn) [Compound 1-37],0 (0% of herbicidal efficacy or phytotoxicity),1 (1%-39% of herbicidal efficacy or phytotoxicity),0 (0% of herbicidal efficacy or phytotoxicity),0 (0% of herbicidal efficacy or phytotoxicity),3 (70%-89% of herbicidal efficacy or phytotoxicity),,,,,,,"Burnyard grass post (herbicidal efficacy grade) [1, 7]: 0 (0% of herbicidal efficacy or phytotoxicity)"
CC(C)(C)C1CN(Cc2ccccc2NS(=O)(=O)C(F)(F)F)C(=O)O1 (stereo not drawn) [Compound 1-33],,,,,,4 (90%-100% of herbicidal efficacy or phytotoxicity),4 (90%-100% of herbicidal efficacy or phytotoxicity),4 (90%-100% of herbicidal efficacy or phytotoxicity),2 (40%-69% of herbicidal efficacy or phytotoxicity),4 (90%-100% of herbicidal efficacy or phytotoxicity),4 (90%-100% of herbicidal efficacy or phytotoxicity),
CC(C)COC(=O)N(c1ccccc1CN1CC(C)(COc2ccccc2)OC1=O)S(=O)(=O)C(F)(F)F (stereo not drawn) [Compound 1-158],,,,,,4 (90%-100% of herbicidal efficacy or phytotoxicity),4 (90%-100% of herbicidal efficacy or phytotoxicity),4 (90%-100% of herbicidal efficacy or phytotoxicity),1 (1%-39% of herbicidal efficacy or phytotoxicity),4 (90%-100% of herbicidal efficacy or phytotoxicity),4 (90%-100% of herbicidal efficacy or phytotoxicity),
CCCCC1(C)CN(Cc2ccccc2NS(=O)(=O)C(F)(F)F)C(=O)O1 (racemic) [Compound 1-121],4 (90%-100% of herbicidal efficacy or phytotoxicity),4 (90%-100% of herbicidal efficacy or phytotoxicity),1 (1%-39% of herbicidal efficacy or phytotoxicity),4 (90%-100% of herbicidal efficacy or phytotoxicity),4 (90%-100% of herbicidal efficacy or phytotoxicity),,,,,,,"Burnyard grass post (herbicidal efficacy grade) [1, 7]: 1 (1%-39% of herbicidal efficacy or phytotoxicity)"
CCC1(C)CN(Cc2ccccc2N(C(=O)OC)S(=O)(=O)C(F)(F)F)C(=S)O1 (stereo not drawn) [Compound 1-182],,,,,,4 (90%-100% of herbicidal efficacy or phytotoxicity),4 (90%-100% of herbicidal efficacy or phytotoxicity),4 (90%-100% of herbicidal efficacy or phytotoxicity),1 (1%-39% of herbicidal efficacy or phytotoxicity),4 (90%-100% of herbicidal efficacy or phytotoxicity),4 (90%-100% of herbicidal efficacy or phytotoxicity),
O=C1OC2CCCCC2N1Cc1ccccc1NS(=O)(=O)C(F)(F)F (stereo not drawn) [Compound 1-47],,,,,,4 (90%-100% of herbicidal efficacy or phytotoxicity),4 (90%-100% of herbicidal efficacy or phytotoxicity),4 (90%-100% of herbicidal efficacy or phytotoxicity),2 (40%-69% of herbicidal efficacy or phytotoxicity),4 (90%-100% of herbicidal efficacy or phytotoxicity),4 (90%-100% of herbicidal efficacy or phytotoxicity),
CC(C)C1COC(=O)N1Cc1ccccc1NS(=O)(=O)C(F)(F)F (stereo not drawn) [Compound 1-9],4 (90%-100% of herbicidal efficacy or phytotoxicity),4 (90%-100% of herbicidal efficacy or phytotoxicity),2 (40%-69% of herbicidal efficacy or phytotoxicity),4 (90%-100% of herbicidal efficacy or phytotoxicity),2 (40%-69% of herbicidal efficacy or phytotoxicity),,,,,,,"Burnyard grass post (herbicidal efficacy grade) [1, 7]: 4 (90%-100% of herbicidal efficacy or phytotoxicity)"
COCC1(C)CN(Cc2ccccc2N(C(=O)OCC(C)C)S(=O)(=O)C(F)(F)F)C(=O)O1 (stereo not drawn) [Compound 1-138],,,,,,4 (90%-100% of herbicidal efficacy or phytotoxicity),4 (90%-100% of herbicidal efficacy or phytotoxicity),4 (90%-100% of herbicidal efficacy or phytotoxicity),2 (40%-69% of herbicidal efficacy or phytotoxicity),4 (90%-100% of herbicidal efficacy or phytotoxicity),4 (90%-100% of herbicidal efficacy or phytotoxicity),
CC[C@H]1CN(Cc2ccccc2N(C(=O)OCC(C)C)S(=O)(=O)C(F)(F)F)C(=O)O1 [Compound 1-56],4 (90%-100% of herbicidal efficacy or phytotoxicity),4 (90%-100% of herbicidal efficacy or phytotoxicity),1 (1%-39% of herbicidal efficacy or phytotoxicity),4 (90%-100% of herbicidal efficacy or phytotoxicity),3 (70%-89% of herbicidal efficacy or phytotoxicity),,,,,,,"Burnyard grass post (herbicidal efficacy grade) [1, 7]: 4 (90%-100% of herbicidal efficacy or phytotoxicity)"
COCC1CN(Cc2ccccc2N(C(=O)OCC(C)C)S(=O)(=O)C(F)(F)F)C(=O)O1 (stereo not drawn) [Compound 1-36],,,,,,4 (90%-100% of herbicidal efficacy or phytotoxicity),4 (90%-100% of herbicidal efficacy or phytotoxicity),4 (90%-100% of herbicidal efficacy or phytotoxicity),1 (1%-39% of herbicidal efficacy or phytotoxicity),4 (90%-100% of herbicidal efficacy or phytotoxicity),4 (90%-100% of herbicidal efficacy or phytotoxicity),
CC1(C)CN(Cc2cccc(O)c2NS(=O)(=O)C(F)(F)F)C(=O)O1 [1-214],,,,,,,,,,,,"Burnyard grass post (herbicidal efficacy grade) [1, 10]: 0 (0% of herbicidal efficacy or phytotoxicity); Bulrush pre (herbicidal efficacy grade) ([2]; dosage 1000 g/ha active ingredient, vs untreated control): 1 (1%-39% of herbicidal efficacy or phytotoxicity); Phytotoxicity to paddy rice (grade) ([4]; dosage 1000 g/ha active ingredient, treated 5 days after transplantation, vs untreated control): 0 (0% of herbicidal efficacy or phytotoxicity); Bulrush post (herbicidal efficacy grade) [5, 10]: 1 (1%-39% of herbicidal efficacy or phytotoxicity)"
CC1(C)OC(=O)N(Cc2cc(Cl)ccc2NS(=O)(=O)C(F)(F)F)C1=O [1-211],,,,,,4 (90%-100% of herbicidal efficacy or phytotoxicity),4 (90%-100% of herbicidal efficacy or phytotoxicity),,4 (90%-100% of herbicidal efficacy or phytotoxicity),4 (90%-100% of herbicidal efficacy or phytotoxicity),,
CC1OC(=O)N(Cc2ccccc2NS(=O)(=O)C(F)(F)F)C1=O (stereo not drawn) [Compound 1-190],4 (90%-100% of herbicidal efficacy or phytotoxicity),4 (90%-100% of herbicidal efficacy or phytotoxicity),0 (0% of herbicidal efficacy or phytotoxicity),4 (90%-100% of herbicidal efficacy or phytotoxicity),2 (40%-69% of herbicidal efficacy or phytotoxicity),,,,,,,
CC(C)COC(=O)N(c1ccccc1CN1CC(C)(C2CCCCC2)OC1=O)S(=O)(=O)C(F)(F)F (stereo not drawn) [Compound 1-156],4 (90%-100% of herbicidal efficacy or phytotoxicity),4 (90%-100% of herbicidal efficacy or phytotoxicity),1 (1%-39% of herbicidal efficacy or phytotoxicity),4 (90%-100% of herbicidal efficacy or phytotoxicity),4 (90%-100% of herbicidal efficacy or phytotoxicity),,,,,,,
